Experimental data taken from publication PMC12909347, “Disconnect between in vitro and in vivo efficacy of the MPS1 inhibitor NTRC 0066-0 against glioblastoma” (Cellular Oncology, 2026).

How the values were obtained:
P-gp = test system: P-gp; set-up: method as in PMID 26153498; conditions: calcein-AM efflux assay; cited from earlier work
BCRP = molecular target: T1, BCRP (Mus musculus, UniProt Q7TMS5); test: Brain penetration in Abcg2-/- mice; assay type: in vivo; conditions: 1 h after 5 mg/kg i.v.
T1 construct: from tissue; host or cells: blood-brain barrier / brain of FVB mice (WT versus Abcg2-/-)
T1 sequence (Q7TMS5 1-657): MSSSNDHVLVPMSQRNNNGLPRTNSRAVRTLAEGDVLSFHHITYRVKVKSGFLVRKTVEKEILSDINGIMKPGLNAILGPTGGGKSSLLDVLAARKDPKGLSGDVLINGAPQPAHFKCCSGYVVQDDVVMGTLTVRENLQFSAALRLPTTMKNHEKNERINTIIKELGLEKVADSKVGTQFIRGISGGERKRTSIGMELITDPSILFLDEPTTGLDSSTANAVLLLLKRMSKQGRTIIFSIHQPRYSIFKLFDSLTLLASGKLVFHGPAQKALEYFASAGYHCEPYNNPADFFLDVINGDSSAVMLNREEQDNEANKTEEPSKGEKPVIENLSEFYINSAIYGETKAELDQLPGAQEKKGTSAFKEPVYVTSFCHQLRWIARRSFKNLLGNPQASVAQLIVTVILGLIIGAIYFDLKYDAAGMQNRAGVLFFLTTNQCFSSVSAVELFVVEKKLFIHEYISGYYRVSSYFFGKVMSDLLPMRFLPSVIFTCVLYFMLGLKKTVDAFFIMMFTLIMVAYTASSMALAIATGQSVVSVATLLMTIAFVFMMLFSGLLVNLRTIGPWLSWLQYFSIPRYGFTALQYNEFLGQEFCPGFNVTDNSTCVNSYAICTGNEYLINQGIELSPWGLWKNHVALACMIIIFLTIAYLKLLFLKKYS
Description: The pharmacokinetics of NTRC 0066-0 were analyzed in wild-type (WT), Abcb1a/b^−/−, Abcg2^−/−, Abcb1a/b^−/−;Abcg2^−/− and Abcb1a/b^−/−;Abcg2^−/−;Abcc4^−/− FVB mice. All knockout mice strains have been developed at the Netherlands Cancer Institute. For i.v. administration, NTRC0066-0 was formulated in DMSO: Cremophor EL: saline (1:1:8 v/v) and injected at a dose of 5 mg/kg. For i.p and oral administration, NTRC0066-0 was administered at 5, 10 or 20 mg/kg as indicated. Serial blood sampling was done by tail vein bleeding at specific time points. At terminal time points, blood was drawn by cardiac puncture followed by tissue collection. Plasma was obtained from whole blood by centrifugation (5 min, 5,000 rpm, 4 °C) and tissues were weighed and homogenized using a FastPrep®-24 (MP-Biomedicals, NY) in 1% (w/v) bovine serum albumin (Sigma-Aldrich) in water.
NTRC 0066-0 was extracted from in vitro and in vivo samples using liquid–liquid extraction with diethyl ether. Another MPS-1 inhibitor, Compound 5 (Cpd-5), was added to the samples as an internal standard. The dried organic phase was reconstituted in 30% methanol in water (v/v). Samples were measured using an LC-MS/MS system comprising an UltiMate 3000 LC Systems (Dionex, Sunnyvale, CA) and an API 4000 mass spectrometer (Sciex, Framingham, MA). […]

GSC556 = test: Cell survival assay, glioma stem cell line; assay type: cell-based, murine; conditions: GSC556 (EgfrvIII;p15Ink4b/p16Ink4a-/-;Pten-/-;Tp53-/-), Fig. 1C
Excerpt: (§1) All cell lines were authenticated using STR profiling. The serum-cultured GBM cell lines U87 (RRID: CVCL_0022) and HS683 (RRID: CVCL_0844) were purchased from the ATCC (Manassas, VA), T98G (RRID: CVCL_0556) and LN-428 (RRID: CVCL_3959) cells were kindly provided by Dr. Conchita Vens (Netherlands Cancer Institute, Amsterdam, The Netherlands), E98 cells were obtained from Prof. Dr. William Leenders (Radboud University Medical Center, Nijmegen, The Netherlands), and LN-751 (RRID: CVCL_3964) were generously made available by Prof. Dr. Monika Hegi (Centre Hospitalier Universitaire Vaudois, Lausanne, Switzerland). GSC lines were isolated from murine tumors that were generated by stereotactic injection of Lenti–Cre vector in the striatum of Egfr^vIII;p15^Ink4b/p16^Ink4aF/F (GSC750), Egfr^vIII;p15^Ink4b/p16^Ink4aF/F;Pten^F/F (GSC578) or Egfr^vIII;p15^Ink4b/p16^Ink4aF/F;Pten^F/F;Tp53^F/F (GSC556) mice, as previously described.
(§2) Wells were pre-coated with poly-ornithine (15 µg/ml for 3 h at room temperature) and subsequently with laminin (7.5 µg/ml for 1 h at 37 °C) prior to seeding GSCs to make them adherent without inducing differentiation. […] Cells were plated in 24-wells plates at low cell densities (2,000–10,000 cells/well) and exposed to different concentrations of NTRC0066-0 24 h later. NTRC0066-0 was dissolved in DMSO (Sigma-Aldrich) for in vitro experiments and final DMSO concentrations never exceeded 0.1%. When untreated wells were confluent (approximately 6–10 days after seeding, dependent on the cell line), cells were fixed and stained using a solution containing 0.5% crystal violet (w/v; Sigma-Aldrich) and 6% glutaraldehyde (v/v; Honeywell, Morris Plains, NJ). Plates were imaged using a Chemi-Doc XRS+ (Bio-rad, Hercules, CA) and analyzed using the Colony Area plugin of ImageJ [24]. IC50 curves were fitted and plotted using the ‘log(inhibitor) vs. normalized response – Variable slope’ fitting procedure of GraphPad Prism v10.3 (GraphPad Software, La Jolla, CA). Monotherapy curves were corrected for untreated controls.

GSC578 = test: Cell survival assay, glioma stem cell line; assay type: cell-based, murine; conditions: GSC578 (EgfrvIII;p15Ink4b/p16Ink4a-/-;Pten-/-), Fig. 1C
Excerpt: as §1, §2

GSC750 = test: Cell survival assay, glioma stem cell line; assay type: cell-based, murine; conditions: GSC750 (EgfrvIII;p15Ink4b/p16Ink4a-/-), Fig. 1C
Excerpt: as §1, §2

For `CCc1cccc(CC)c1NC(=O)c1ccn2c1CCc1cnc(Nc3ccc(N4CCN(C)CC4)cc3OC)nc1-2` [NTRC 0066-0], the “Inhibition of P-gp activity” value (P-gp) is given as “does not inhibit the activity of P-gp”, the “Plasma and brain concentrations compared to WT mice” value (BCRP) is given as “no differences” and the IC50 (GSC556) is given as 20 nM. The IC50 (GSC578) was 46 nM and the IC50 (GSC750) was 25 nM.
